In patent US10800757B2, “Inhibitors of TRPC6” (Boehringer Ingelheim International GmbH, priority 2017, dated 2020):

Molecular target: TRPC6 (Homo sapiens (Human), UniProt Q9Y210)
Experiment: High throughput screening assay: fluorescent calcium (Fluo4/AM) assay of TRPC6 channel activation by GSK1702934A in HEK293/TREx cells
Type: cell-based
Conditions: HEK293/TREx cells stably transfected with TRPC6; agonist GSK1702934A; 7 concentrations 20 μM to 0.027 μM, triplicate
Description: This screening assay measures TRPC6 (transient receptor potential cation channel, subfamily C, member 6) ion channel activation via addition either of the commercially available DAG ligand analogue OAG (1-oleoyl-2-acetyl-sn-glycerol) or of the TRPC6 agonist 1-[1-(4,5,6,7,8-pentahydrocyclohepta[2,1-d]thiophen-2-ylcarbonyl)-4-piperidyl]-3-hydrobenzimidazol-2-one (GSK1702934A). The assay utilizes a FLIPR fluorescent calcium sensor 4-(6-Acetoxymethoxy-2,7-difluoro-3-oxo-9-xanthenyl)-4′-methyl-2,2′-(ethylenedioxy)dianiline-N,N,N′,N′-tetraacetic acid tetrakis(acetoxymethyl) ester (Fluo4/AM) […]. Changes (increases) in intracellular membrane calcium concentration potential as measured by the fluorescent signal increase during membrane depolarization provide a measurement of channel activity.
The commercially available HEK293/TREx line (Invitrogen) was stably transfected with a TRPC6 construct and screened by conventional calcium imaging to find clones with TRPC6 expression following stimulation with 1 μg/ml tetracycline. These cells were maintained in the growth medium recommended by the manufacturer supplemented with 100 μg/ml hygromycin to promote retention of the TRPC6 construct. After growing to near confluency, cells were plated at a density of ^˜35,000 cells/well in 384 well CellBind plates (Corning) in the presence of 1 μg/ml tetracycline, and allowed to grow for 20-30 hrs. A nearly confluent monolayer resulted. Growth media was removed from the wells and cells were then loaded with […] Fluo4/AM diluted in Ringer's Solution (6.5 g NaCl, 0.42 g KCl, 0.25 g CaCl2) and 0.2 g of sodium bicarbonate; pH 7.4) supplemented with 1% Pluronic F-127 to a final concentration of 0.5 μM and incubated for 60 min, at room temperature. Dye solution was then removed from the cells by inverting plates with a sharp flick, and replaced with 25 μl Ringer's. Following ^˜0.5 hour for recovery from loading, cells were assayed using the Hamamatsu FDSS 6000 system, which permitted illumination at 485 nm. Frames were acquired at a rate of 0.2 Hz. During the assay, the plates were continuously vortexed, with pipette mixing of wells following addition of each reagent. For the screening assay, 26 μl of a diluted compound stock (at 50 μM) was added to each well for 2 minutes following the collection of a short (4 frame) baseline. 13 μl of agonist solution consisting of 125 nM GSK1702934A diluted in high-Ca2+Ringer solution (containing 90 mm Ca2+) was then added to each well, achieving a final concentration of 20 mm Ca2+ and 10 μM test compound. Data was collected for ^˜3 minutes following addition of high Ca2+Ringer. The fluorescent ratio for each well was divided by the initial fluorescent intensity for that well and the overall response was determined by averaging the fluorescent ratio of the last 4 frames acquired during the experiment excepting the final frame. Negative and Positive controls were included on each plate. Negative controls wells consisted of HEK293/TREx TRPC6 cells exposed to assay buffer and agonist solution, but no test compound. Positive control consisted of wells consisted of HEK293/TREx TRPC6 cells exposed to 25 μM 3-[(2-chlorophenoxy)methyl]phenyl piperidyl ketone (Chembridge) diluted in Ringer's solution and agonist solution. These controls defined zero percent and 100 percent block respectively, and intensity of each well was normalized to these values.
Compounds were tested in triplicate at all concentrations. Standard software was used to fit IC50 curves.

Sequence of TRPC6 (Q9Y210 whole entry, species assumed): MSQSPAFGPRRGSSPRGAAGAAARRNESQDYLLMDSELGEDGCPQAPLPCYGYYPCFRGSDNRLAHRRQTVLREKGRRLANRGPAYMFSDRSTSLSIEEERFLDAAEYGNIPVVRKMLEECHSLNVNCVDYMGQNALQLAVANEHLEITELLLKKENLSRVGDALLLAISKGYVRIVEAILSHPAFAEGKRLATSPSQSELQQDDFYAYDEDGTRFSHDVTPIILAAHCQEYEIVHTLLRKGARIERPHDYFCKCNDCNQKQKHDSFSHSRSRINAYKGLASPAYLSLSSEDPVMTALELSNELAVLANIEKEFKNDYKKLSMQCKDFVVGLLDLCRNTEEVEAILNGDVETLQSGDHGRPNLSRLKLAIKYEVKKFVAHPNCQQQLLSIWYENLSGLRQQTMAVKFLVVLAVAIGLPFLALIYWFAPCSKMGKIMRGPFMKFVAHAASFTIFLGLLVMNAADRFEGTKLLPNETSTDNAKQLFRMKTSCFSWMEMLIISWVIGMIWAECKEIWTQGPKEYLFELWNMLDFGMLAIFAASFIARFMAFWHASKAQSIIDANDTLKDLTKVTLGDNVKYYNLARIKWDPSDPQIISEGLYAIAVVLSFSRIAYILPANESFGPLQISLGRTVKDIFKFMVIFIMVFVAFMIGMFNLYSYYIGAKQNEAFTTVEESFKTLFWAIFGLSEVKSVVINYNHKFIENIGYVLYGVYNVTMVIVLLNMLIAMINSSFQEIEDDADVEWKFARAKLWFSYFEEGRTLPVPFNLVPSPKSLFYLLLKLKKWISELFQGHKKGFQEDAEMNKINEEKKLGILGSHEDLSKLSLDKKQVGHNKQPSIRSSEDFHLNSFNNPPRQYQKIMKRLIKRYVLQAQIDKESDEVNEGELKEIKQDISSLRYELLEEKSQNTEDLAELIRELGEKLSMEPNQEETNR

COc1cc(C(=O)N2CCC(c3cnc(N)cc3OC)CC2)ncc1OCCC1CC1 [Compound 48, (6-Amino-4-methoxy-3′,4′,5′,6′-tetrahydro-2′H-[3,4′]bipyridinyl-1′-yl)-[5-(2-cyclopropyl-ethoxy)-4-methoxy-pyridin-2-yl]-methanone]
IC50: 250 nM

COc1cc(C(=O)N2CCC(c3cnc(N)cc3OC)CC2)ncc1OCc1ccccc1F [Compound 19, (6-Amino-4-methoxy-3′,4′,5′,6′-tetrahydro-2′H-[3,4′]bipyridinyl-1′-yl)-[5-(2-fluoro-benzyloxy)-4-methoxy-pyridin-2-yl]-methanone]
IC50: 32 nM

COc1cc(C(=O)N2CCN(c3cnc(N)cc3OC)C[C@@H]2CO)ncc1Oc1ccccc1 [Compound 69, [(R)-4-(6-Amino-4-methoxy-pyridin-3-yl)-2-hydroxymethyl-piperazin-1-yl]-(4-methoxy-5-phenoxy-pyridin-2-yl)-methanone]
IC50: 630 nM

COc1cc(C(=O)N2CCC(c3cnc(N)cc3OC)CC2)ncc1OCc1ccccc1 [Compound 43, (6-Amino-4-methoxy-3′,4′,5′,6′-tetrahydro-2′H-[3,4′]bipyridinyl-1′-yl)-(5-benzyloxy-4-methoxy-pyridin-2-yl)-methanone]
IC50: 140 nM

COc1ccc(Oc2cnc(C(=O)N3CCC(c4cc(OC)c(N)nn4)CC3)cc2OC)cc1 [Compound 60, [4-(6-Amino-5-methoxy-pyridazin-3-yl)-piperidin-1-yl]-[4-methoxy-5-(4-methoxy-phenoxy)-pyridin-2-yl]-methanone]
IC50: 440 nM

COc1cc(C(=O)N2CCC(c3cnc(N)cc3C)CC2)ncc1Oc1ccccc1 [Compound 10, (6-Amino-4-methyl-3′,4′,5′,6′-tetrahydro-2′H-[3,4′]bipyridinyl-1′-yl)-(4-methoxy-5-phenoxy-pyridin-2-yl)-methanone]
IC50: 27 nM

COc1cc(C(=O)N2CCC(c3ccc(N)nn3)CC2)ncc1OCC1(C)CC1 [Compound 75, [4-(6-Amino-pyridazin-3-yl)-piperidin-1-yl]-[4-methoxy-5-(1-methyl-cyclopropylmethoxy)-pyridin-2-yl]-methanone]
IC50: 1500 nM

COc1cc(C(=O)N2CCC(c3cnc(N)cc3OC)CC2)ncc1Oc1ccc(F)cc1 [Compound 4, (6-Amino-4-methoxy-3′,4′,5′,6′-tetrahydro-2′H-[3,4′]bipyridinyl-1′-yl)-[5-(4-fluoro-phenoxy)-4-methoxy-pyridin-2-yl]methanone]
IC50: < 27 nM

COc1cc(C(=O)N2CCC(c3ccc(N)nn3)CC2)ncc1OCC(C)C [Compound 36, [4-(6-Amino-pyridazin-3-yl)-piperidin-1-yl]-(5-isobutoxy-4-methoxy-pyridin-2-yl)-methanone]
IC50: 97 nM

COc1cc(C(=O)N2CCC(c3ccc(N)nn3)CC2)ncc1OCC(C)(C)C [Compound 74, [4-(6-Amino-pyridazin-3-yl)-piperidin-1-yl]-[5-(2,2-dimethyl-propoxy)-4-methoxy-pyridin-2-yl]-methanone]
IC50: 1400 nM

COc1cc(C(=O)N2CCN(c3cnc(N)cc3OC)CC2)ncc1OCC1CC1 [Compound 61, [4-(6-Amino-4-methoxy-pyridin-3-yl)-piperazin-1-yl]-(5-cyclopropylmethoxy-4-methoxy-pyridin-2-yl)-methanone]
IC50: 500 nM

COc1cc(C(=O)N2CCN(c3cnc(N)cc3OC)C[C@@H]2CO)ncc1Oc1ccc(F)cc1 [Compound 42, [(R)-4-(6-Amino-4-methoxy-pyridin-3-yl)-2-hydroxymethyl-piperazin-1-yl]-[5-(4-fluoro-phenoxy)-4-methoxy-pyridin-2-yl]-methanone]
IC50: 140 nM

COc1cc(C(=O)N2CCC(c3cnc(N)cc3C)CC2)ncc1Oc1ccc(F)cc1 [Compound 2, (6-Amino-4-methyl-3′,4′,5′,6′-tetrahydro-2′H-[3,4′]bipyridinyl-1′-yl)-[5-(4-fluoro-phenoxy)-4-methoxy-pyridin-2-yl]-methanone]
IC50: < 27 nM
